Source: patent publication US20260103740A1, “METHOD AND APPARATUS FOR USING L[…] BEADS FOR ANTIMICROBIAL SUSCEPTIBILITY TESTING” (General Electric Company, priority 2022, published 2026)

Tested on: E. coli
Conditions: samples loaded by microfluidic manifold and manually (non-manifold control); antibiotic bead minus control bead Ct; FIG. 7
Protocol: The tetracycline-lyophilized reagent bead 68 was prepared such that each tetracycline-lyophilized reagent bead 68 when dissolved in 10 microliters of water yields a solution containing 0.1, 0.5, 2, and 10, micrograms of tetracycline/mL of water. To complete the trials, the embedded amplification bead 20 in the solid wax 28 was placed at the bottom of each of the amplification reaction vessels 24, and the antibiotic bead 22 was placed on top of the solid wax 28. […] Bacterial growth in the presence of the varying tetracycline concentrations mentioned above was conducted for a period of about three hours at an incubation temperature of 37° C. The temperature was then raised to above the melting point of the solid wax 28, and amplification was performed to assess the inhibitory effects of tetracycline on bacterial growth. The threshold value (Ct) of the amplification reactions were measured. […] The data was normalized by subtracting the mean Ct value for no-drug positive control from individual Ct values across the drug-containing incubations. […]
As shown in the graphical representation of lyophilized drug reagent bead testing 60, the tetracycline concentration 62 for both liquid tetracycline 66, the control group reagent, and tetracycline-lyophilized reagent beads 68 were measured in micrograms per milliliter (μg/mL), relative to the delta Ct values 64 produced by the concentration. […]

CN(C)[C@@H]1C(O)=C(C(N)=O)C(=O)[C@@]2(O)C(O)=C3C(=O)c4c(O)cccc4[C@@](C)(O)[C@H]3C[C@@H]12.Cl [tetracycline, Tetracycline hydrochloride]
growth inhibition (delta Ct values versus tetracycline concentration): demonstrated growth inhibition at the same concentrations
